ChEMBL document CHEMBL1201862, “PubChem BioAssay data set” (2004)
Active and inactive are the calls of the source. Rule as the data show it, for most assays here: actives have a measured EC50 and inactives only a lower limit.

How the values were obtained:
[1] = NIH-3T3 fibroblast cytotoxicity, dose response, cytotoxicity control, cell-based, fluorescence, Alamar Blue, secondary assay (AID 2327); format: functional;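 also: NIH-3T3 mouse fibroblasts cultured with fluconazole at 8 µg/mL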
[2] = fluconazole-exposed Candida albicans growth modulators – fluorescence, retest, confirmation (AID 2467); format: functional, cell-based
[3] = target: T1, Corticotropin-releasing factor receptor 2/Corticotropin-releasing factor-binding protein (Homo sapiens, UniProt P24387+Q13324); assay: activators of CRF receptor 2 with binding protein – uHTS hits, confirmation (AID 602473); format: functional; conditions: read-out: EC50_Mean
T1 sequence (Q13324 whole entry): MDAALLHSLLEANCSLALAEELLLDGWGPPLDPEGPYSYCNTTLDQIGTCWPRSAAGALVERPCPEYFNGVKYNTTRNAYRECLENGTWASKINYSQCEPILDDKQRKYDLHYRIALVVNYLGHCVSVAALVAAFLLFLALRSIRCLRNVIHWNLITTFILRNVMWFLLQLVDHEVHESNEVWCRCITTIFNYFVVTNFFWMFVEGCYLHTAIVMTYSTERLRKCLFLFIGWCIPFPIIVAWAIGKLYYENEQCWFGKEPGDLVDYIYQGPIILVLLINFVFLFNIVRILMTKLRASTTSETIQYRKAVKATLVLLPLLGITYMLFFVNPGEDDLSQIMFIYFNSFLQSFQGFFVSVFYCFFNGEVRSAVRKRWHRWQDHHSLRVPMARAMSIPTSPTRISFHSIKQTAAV
T1 sequence (P24387 whole entry): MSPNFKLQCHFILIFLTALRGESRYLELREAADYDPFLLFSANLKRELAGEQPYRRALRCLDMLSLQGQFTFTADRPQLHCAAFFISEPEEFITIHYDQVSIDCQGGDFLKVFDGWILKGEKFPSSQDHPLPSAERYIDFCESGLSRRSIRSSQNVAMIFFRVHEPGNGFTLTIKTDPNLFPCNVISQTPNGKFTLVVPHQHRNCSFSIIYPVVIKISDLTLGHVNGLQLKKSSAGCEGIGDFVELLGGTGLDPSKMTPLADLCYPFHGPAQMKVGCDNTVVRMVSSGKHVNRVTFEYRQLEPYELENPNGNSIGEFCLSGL

[4] = target: T2, RNA-binding protein pos-1 (Caenorhabditis elegans, UniProt G5EF15); assay: disruptors of C. elegans POS-1 RNA interaction – biochemical, fluorescence polarization, dose response (AID 1964);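 also: purified POS-1 fused to maltose binding protein made in E. coli; potency of compounds blocking POS-1 binding to fluorescent RNA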
T2 sequence (G5EF15 whole entry): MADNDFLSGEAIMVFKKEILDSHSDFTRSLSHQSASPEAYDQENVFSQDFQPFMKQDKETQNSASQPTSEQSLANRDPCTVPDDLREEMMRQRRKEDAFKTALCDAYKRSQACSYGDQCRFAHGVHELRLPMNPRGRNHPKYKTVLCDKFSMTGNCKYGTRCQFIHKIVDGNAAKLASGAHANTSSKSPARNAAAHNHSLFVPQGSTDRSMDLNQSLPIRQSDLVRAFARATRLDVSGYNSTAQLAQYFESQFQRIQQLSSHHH

[5] = target: T3, Zinc finger protein mex-5 (Caenorhabditis elegans, UniProt Q9XUB2); assay: potency of MEX-5 RNA-binding blockers – biochemical, C. elegans, fluorescence polarization, dose response (AID 1960)
T3 sequence (Q9XUB2 whole entry): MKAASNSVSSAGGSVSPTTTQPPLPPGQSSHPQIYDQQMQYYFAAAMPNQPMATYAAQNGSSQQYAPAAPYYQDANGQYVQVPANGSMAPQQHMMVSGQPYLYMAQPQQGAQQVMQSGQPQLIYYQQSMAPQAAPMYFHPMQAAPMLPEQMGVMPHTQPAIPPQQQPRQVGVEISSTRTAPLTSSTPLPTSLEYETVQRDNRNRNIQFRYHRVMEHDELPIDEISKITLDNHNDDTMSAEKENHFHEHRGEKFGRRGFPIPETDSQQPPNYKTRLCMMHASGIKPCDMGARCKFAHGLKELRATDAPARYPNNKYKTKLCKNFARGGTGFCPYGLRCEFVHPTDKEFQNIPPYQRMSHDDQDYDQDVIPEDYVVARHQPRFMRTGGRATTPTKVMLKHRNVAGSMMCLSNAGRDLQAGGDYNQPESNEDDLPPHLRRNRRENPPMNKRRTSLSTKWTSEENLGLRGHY

[6] = microbe, parasite or virus in culture; format: functional; conditions: Mycobacterium tuberculosis
[7] = target: T4, Ubiquitin-conjugating enzyme E2 N (Homo sapiens, UniProt P61088); format: functional;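 also: Dose-response confirmation in a TR-FRET assay detecting UBC13-driven polyubiquitin chain formation, inhibition measured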
T4 sequence (P61088 whole entry): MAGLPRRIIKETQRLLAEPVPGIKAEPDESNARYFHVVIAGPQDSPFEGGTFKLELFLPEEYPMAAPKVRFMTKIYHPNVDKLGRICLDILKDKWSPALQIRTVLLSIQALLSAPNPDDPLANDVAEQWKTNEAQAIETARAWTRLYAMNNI

[8] = Luminescence Cell-Based Dose Retest to Confirm Inhibitors of Cancer Stem Cells. [Related pubchem assays (depositor defined):AID2717, AID2721]; format: functional; conditions: Homo sapiens
[9] = system: H4; assay: Luminescence Cell-Based Dose Response HTS to Identify Activators of 5'UTR Stem-Loop Driven Prion Protein mRNA Translation in H4 Neuroglioblastoma Cells. [Related pubchem assays: 1829 (Project Summary), 1814 (Primary HTS)]; format: functional; conditions: Homo sapiens
[10] = Luminescence Cell-Based Dose Response HTS to Identify Activators of Luciferase Translation or Activity in H4 […] Cells. [Related pubchem assays: 1829 (Project Summary), 1814 (Primary HTS)]; format: functional
[11] = Luminescence Cell-Based Dose Confirmation HTS to Identify Activators of 5'UTR Stem-Loop Driven Alpha-Synuclein mRNA Translation in H4 Neuroglioblastoma Cells. [Related pubchem assays: 1829 (Project Summary), 1814 (Primary HTS)]; format: functional
[12] = viability of uninfected HEp-2 cells – cell-based, HTS, cytotoxicity control for RSV inhibitor project, dose response (AID 2410); format: functional; conditions: human respiratory syncytial virus
[13] = Luminescence Cell-Based Dose Confirmation HTS to Identify Inhibitors of Platelet Dense Granule Release. [Related pubchem assays: 1663 (Primary HTS), 1678 (Summary of Project)]; format: functional
[14] = target: Luciferin 4-monooxygenase (Photinus pyralis, UniProt P08659); assay: inhibition of purified Photinus pyralis luciferase – biochemical, luminescence, dose response (AID 1891)
[15] = target: T5, Rac GTPase-activating protein 1 (Homo sapiens, UniProt Q9H0H5); assay: blockers of MgcRacGAP-driven Rac1 GTP hydrolysis – biochemical, ADP Hunter fluorescence, primary and confirmatory, confirmation (AID 624330); format: functional
T5 sequence (Q9H0H5 whole entry): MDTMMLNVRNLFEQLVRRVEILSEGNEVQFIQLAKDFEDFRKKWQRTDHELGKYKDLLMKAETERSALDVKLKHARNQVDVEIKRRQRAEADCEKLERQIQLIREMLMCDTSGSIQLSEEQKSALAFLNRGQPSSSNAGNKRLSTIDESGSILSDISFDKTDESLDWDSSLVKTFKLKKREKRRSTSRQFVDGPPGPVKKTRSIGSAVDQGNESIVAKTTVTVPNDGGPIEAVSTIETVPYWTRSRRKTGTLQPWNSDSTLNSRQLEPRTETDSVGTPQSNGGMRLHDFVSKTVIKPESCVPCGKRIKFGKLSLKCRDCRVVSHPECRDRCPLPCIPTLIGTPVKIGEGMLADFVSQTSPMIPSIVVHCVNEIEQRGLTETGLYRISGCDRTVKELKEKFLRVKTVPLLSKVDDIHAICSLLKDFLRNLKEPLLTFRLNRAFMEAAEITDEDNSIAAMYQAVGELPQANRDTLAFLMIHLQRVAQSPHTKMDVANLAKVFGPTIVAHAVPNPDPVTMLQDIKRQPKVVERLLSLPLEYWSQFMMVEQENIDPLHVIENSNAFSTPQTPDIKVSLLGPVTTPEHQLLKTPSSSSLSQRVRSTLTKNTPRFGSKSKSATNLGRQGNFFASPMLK

[16] = P. falciparum Dd2 growth inhibitors, dose response, SYBR Green, cherry-picked samples (AID 1159567); format: functional, cell-based

Chain of Luciferin 4-monooxygenase (P08659 whole entry): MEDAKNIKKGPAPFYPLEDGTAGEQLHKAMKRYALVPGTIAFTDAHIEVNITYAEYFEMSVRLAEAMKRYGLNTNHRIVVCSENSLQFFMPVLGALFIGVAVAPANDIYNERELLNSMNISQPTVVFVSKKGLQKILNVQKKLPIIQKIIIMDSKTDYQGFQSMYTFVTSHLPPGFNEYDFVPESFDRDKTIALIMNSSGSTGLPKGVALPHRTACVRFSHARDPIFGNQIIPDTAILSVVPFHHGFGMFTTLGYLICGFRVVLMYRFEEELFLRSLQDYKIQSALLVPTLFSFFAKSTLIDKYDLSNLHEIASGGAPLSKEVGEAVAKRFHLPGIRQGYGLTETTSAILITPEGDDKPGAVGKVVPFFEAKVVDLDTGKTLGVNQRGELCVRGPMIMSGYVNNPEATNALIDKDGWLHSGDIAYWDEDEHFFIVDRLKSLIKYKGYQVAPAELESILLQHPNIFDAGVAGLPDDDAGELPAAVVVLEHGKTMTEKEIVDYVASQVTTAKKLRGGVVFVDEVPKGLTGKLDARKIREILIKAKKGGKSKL

Compound: NC(=S)n1[nH]c(-c2ccccc2)c(N=Nc2ccccc2C(=O)N2CCOCC2)c1=O
- EC50 [1]: > 150 µM (inactive)
- EC50 [2]: 7.72 µM (active)

Compound: CN(C)c1ccc(C=C2SC(=S)N(Cc3ccco3)C2=O)cc1
- EC50 [3]: 3.2 µM (active)

Compound: Cc1[n-][o+]nc1OCCNCCNc1ccc([N+](=O)[O-])c2cccnc12
- EC50 [4]: 120 µM (active)
- EC50 [5]: 18.6 µM (active)

Compound: CCOc1ccc2nc(N=C(N)N=C(S)Nc3cccc(C)c3)nc(C)c2c1
- CC50 [6]: > 40 µM (active)

Compound: CN(C)CCCN(C(=O)c1ccc(S(=O)(=O)N2CCCC2)cc1)c1nc2ccc(Br)cc2s1
- IC50 [7]: > 20 µM (inactive)

Compound: Oc1ccc(Cl)cc1C1=NNC(c2cc(Br)cc3c2OCOC3)C1 (stereo not drawn)
- EC50 [1]: > 160 µM (inactive)
- EC50 [2]: > 38 µM (not active)

Compound: O=C(/C=C/c1ccccc1)NNc1ccc(Cl)cc1
- AC50 [8]: 5.85 µM (active)
- EC50 [1]: 28.1 µM (inconclusive)
- EC50 [2]: 2.71 µM (active)

Compound: Cc1nn(-c2ccc(Cl)nn2)c(=O)c2ccccc12
- EC50 [9]: 16.4 µM (active)
- EC50 [10]: 14.4 µM (active)
- EC50 [11]: 12.5 µM (active)

Compound: Cc1cccc(NC(=O)c2nc[nH]c2C(=O)N[C@H](C)c2ccccc2)c1
- AC50 [8]: 6.42 µM (active)
- CC50 [6]: 36.9 µM (active)

Compound: O=C(Nc1cccc(F)c1)c1ccc2ncsc2c1
- EC50 [1]: > 150 µM (inactive)
- EC50 [2]: 3.17 µM (active)

Compound: Cc1nc(NC(=O)CC(C)C)sc1-c1csc(Nc2ccc(Cl)cc2Cl)n1
- CC50 [12]: 22.9 µM (active)
- AC50 [8]: 1.85 µM (active)
- CC50 [6]: > 40 µM (active)

Compound: CC(C)=C(NC(=O)c1ccccc1)C(=O)N/N=C/c1ccc(O)cc1
- EC50 [9]: 8.89 µM (active)
- EC50 [10]: 11.8 µM (active)
- EC50 [13]: > 112 µM (not active)
- EC50 [11]: 11.3 µM (active)
- EC50 [14]: > 112 µM (not active)
- IC50 [15]: 102 µM (active)

Compound: COc1cc(C2CC(=O)Nc3[nH]nc(-c4ccccc4)c32)cc(OC)c1OC (stereo not drawn)
- EC50 [9]: > 120 µM (not active)
- EC50 [10]: > 120 µM (not active)
- EC50 [11]: > 120 µM (not active)

Compound: C=CCC1(CC=C)CCCN1C(=O)C1CCC(=O)N(CCc2ccc(OC)cc2)C1 (stereo not drawn)
- EC50 [9]: 96 µM (active)
- EC50 [10]: 10.4 µM (active)
- EC50 [11]: 6.13 µM (active)

Compound: O=C1c2ccccc2C(=O)N1CCN1CCc2ccccc21
- EC50 [9]: 30.3 µM (active)
- EC50 [10]: 17.9 µM (active)
- EC50 [11]: 13.7 µM (active)

Compound: CCc1ccc(N2CC(C(=O)N/N=C/c3cc([N+](=O)[O-])ccc3O)CC2=O)cc1 (stereo not drawn)
- EC50 [1]: 23.1 µM (active)
- EC50 [2]: > 38 µM (not active)

Compound: Cc1cccc(OCC(=O)NC(C)C(=O)N/N=C/c2c(OCc3ccccc3)ccc3ccccc23)c1 (stereo not drawn)
- EC50 [9]: 33.5 µM (active)
- EC50 [10]: 39.7 µM (active)
- EC50 [11]: 9.47 µM (active)

Compound: COC(=O)c1cn(CC(=O)NC2CCCCC2)c2ccccc12
- EC50 [1]: > 150 µM (inactive)
- EC50 [2]: > 38 µM (not active)

Compound: O=C1C2=C(SCCS2)C(=O)N1c1ccccc1
- EC50 [4]: > 300 µM (not active)
- EC50 [5]: > 300 µM (not active)

Compound: COc1ccc(C[C@H]2CN3C(=NC[C@@H]3Cc3ccccc3)N2CCNC(=O)c2ccc(C)c(Br)c2)cc1
- IC50 [7]: > 20 µM (inactive)

Compound: Cc1nc(-c2nc(-c3c(C(=O)NNC(=O)c4ccc(Cl)cc4)noc3C)cs2)cs1
- CC50 [6]: > 40 µM (active)

Compound: O=C(c1ccccc1)N1CC[C@@H]2[C@@H](CO)Nc3ccc(-c4ccc(F)cc4)cc3[C@@H]21
- AC50 [16]: 5.45 µM (active)

Compound: CC(C)c1ccc(N(C(=O)c2ccco2)C(C(=O)NC2CCCC2)c2ccncc2)cc1 (stereo not drawn)
- EC50 [9]: > 120 µM (not active)
- EC50 [10]: 50.3 µM (active)
- EC50 [11]: 22.1 µM (active)

Compound: CO[C@H]1O[C@H](CBr)[C@@H](OC(=O)c2ccccc2)[C@H](O)[C@H]1O
- EC50 [4]: > 300 µM (not active)
- EC50 [5]: > 300 µM (not active)

Compound: CC1=CC(C)(C)N2C(=O)C3(C(C#N)=C(N)OC4=C3C(=O)CC(C)(C)C4)c3cc(C)cc1c32 (stereo not drawn)
- EC50 [4]: > 300 µM (not active)
- EC50 [5]: > 300 µM (not active)

Compound: N#Cc1ccc(OCC(O)CN2CCN(c3ncc(C(F)(F)F)cc3Cl)CC2)cc1 (stereo not drawn)
- CC50 [6]: > 40 µM (active)

Compound: C[C@H]1CN([C@@H](C)CO)S(=O)(=O)c2ccc(C#Cc3ccccc3)cc2O[C@@H]1CN(C)C(=O)C1CC1
- AC50 [16]: 5.43 µM (active)

Compound: CC1CCCCC1NC(=O)/C=C/c1nc2ccccc2s1 (stereo not drawn)
- EC50 [9]: 16.2 µM (active)
- EC50 [10]: 17.2 µM (active)
- EC50 [11]: 15.9 µM (active)

Compound: Cc1cccc(-c2nc(C#N)c(N3CCCCC3)o2)c1
- EC50 [9]: 3.9 µM (active)
- EC50 [10]: 20 µM (active)
- EC50 [11]: 10 µM (active)

Compound: COCCCNC(=O)CCC(=O)NNc1nc2ccccc2c2nc(C)nn12
- EC50 [4]: > 300 µM (not active)
- EC50 [5]: 1.13 µM (active)

Compound: N#Cc1ccc(-c2ccc(OCC3CNC(=O)O3)cc2)cc1 (stereo not drawn)
- EC50 [9]: 11.3 µM (active)
- EC50 [10]: 36.9 µM (active)
- EC50 [11]: 0.187 µM (active)

Compound: COc1ccc(/C=N/NC(=O)CSCc2ccc([N+](=O)[O-])cc2)cc1OC
- IC50 [7]: > 20 µM (inactive)

Compound: Cc1c([N+](=O)[O-])c(C(=O)Nc2ccc3c(c2)OCCO3)nn1C
- EC50 [9]: 9.3 µM (active)
- EC50 [10]: 11 µM (active)
- EC50 [11]: 17.1 µM (active)
